System: patients with persistent moderate to severe atopic dermatitis inadequately controlled by TCS
Test: Clinical Study I (phase II, lebrikizumab + TCS vs placebo + TCS): efficacy outcomes
Assay type: in vivo, human
Details: for Change from baseline Pruritus VAS, mean % change / Change from baseline Pruritus VAS, placebo-corrected differences / Change from baseline in EASI, mean % change / Change from baseline in EASI, placebo-corrected differences / Patients maintaining EASI-50 response at Weeks 12 and 20, % / Patients maintaining EASI-50 response at Weeks 12 and 20, placebo-corrected differences / Patients maintaining EASI-75 response at Weeks 12 and 20, % / Patients maintaining EASI-75 response at Weeks 12 and 20, placebo-corrected differences / Patients maintaining IGA 0/1 response at Weeks 12 and 20, % / Patients maintaining IGA 0/1 response at Weeks 12 and 20, placebo-corrected differences / Patients maintaining SCORAD-50 response at Weeks 12 and 20, % / Patients maintaining SCORAD-50 response at Weeks 12 and 20, placebo-corrected differences: Week 20
Experimental: Clinical Study I was a phase II, randomized, double-blind, placebo-controlled study to evaluate the safety and efficacy of lebrikizumab in patients (age 18-75) with persistent moderate to severe atopic dermatitis that is inadequately controlled by topical corticosteroids (TCS). In this Study, lebrikizumab was tested in combination with TCS.
The inclusion criteria included the following: age 18 to 75 years; AD diagnosed by the Hanifin/Rajka criteria and that had been present for at least 1 year at screening; moderate to severe AD as graded by the Rajka/Langeland criteria at screening; history of inadequate response to a 1 month (within the 3 months prior to the screening visit) treatment regimen of at least daily TCS and regular emollient for treatment of AD; EASI score 14 at screening and end of the run-in period (Visit 3), IGA score 3 (5-point scale) at screening and end of the run-in period (Visit 3); AD involvement of 10% body surface area (BSA) at screening; and Pruritus VAS score (measured as part of the SCORAD) of 3 at screening.
Run-in Period. Following the screening visit, eligible patients entered a 2-week run-in period (Days −14 to −1) during which a protocol-specified topical therapy regimen was initiated. On the first day of the run-in period (Day −14) patients received TCS for use throughout the run-in period. Patients were required to apply the following topical therapy regimen daily: emollient to all xerotic skin surfaces, at least once daily; TCS cream consisting of medium potency TCS (triamcinolone acetonide 0.1%), two times per day, only to all active skin lesions.
Treatment Period. […] The plan was to randomize approximately 200 patients (1:1:1:1) to one of the following four treatment groups (see FIG. 1): (1) Group 1: lebrikizumab 250 mg administered subcutaneously (SC) single dose (Day 1) followed by 2 placebo doses (at Week 4 and at Week 8) for a total of 3 doses+TCS cream; (2) Group 2: lebrikizumab 125 mg SC single dose (Day 1) followed by 2 placebo doses (Week 4 and Week 8) for a total of 3 doses+TCS cream; (3) Group 3: lebrikizumab 125 mg SC every 4 weeks (Q4W) for a total of 3 doses+TCS cream; and (4) Group 4: placebo SC Q4W for a total of 3 doses+TCS cream. Three active doses were included to characterize both exposure-response relationships and dosing frequency requirements.
Patients randomized to these four study treatment groups received study drug (lebrikizumab or placebo SC) in combination with TCS. Throughout the 12-week treatment period these patients continued to apply emollient at least once daily and triamcinolone acetonide 0.1% cream as described in the run-in period (two times per day to all active skin lesions on the body). […] Patients recorded their use of topical creams and responded to PRO-related questions using a hand held eDiary throughout the treatment period. At each study visit the patient was required to bring their TCS containers to the study site to be weighed.
Efficacy Outcome Measures. The primary efficacy outcome measure was the percentage of patients achieving EASI-50 (a 50% reduction in EASI score from baseline) at Week 12. […]

[1] = 125 mg Q4W + TCS BID (n = 51), Week 12
[2] = 125 mg Q4W + TCS BID (n = 51), Week 12, listed as Lebri
[3] = 125 mg once every four weeks + TCS, Week 12, post hoc analysis
[4] = 125 mg single dose + TCS BID (n = 52), Week 12

## lebrikizumab: monoclonal humanized anti-IL-13 IgG4 antibody; heavy chain SEQ ID NO: 11, light chain SEQ ID NO: 12; formulated at 125 mg/mL in prefilled syringe
[1]
  % Patients achieving EASI-50: 82.4%
  % Patients achieving EASI-50, placebo-corrected changes: 20.1%
  % Patients achieving EASI-75: 54.9%
  % Patients achieving EASI-75, placebo-corrected changes: 20.9%
  % Patients achieving IGA 0/1: (33.3) %
  % Patients achieving IGA 0/1, placebo-corrected change: 14.5%
  % Patients achieving SCORAD-50: 51.0%
  % Patients achieving SCORAD-50, placebo-corrected change: 24.6%
  % Patients achieving SCORAD-75: (21.6) %
  % change from baseline in AD Specific health-related QoL - ADIQ, mean: −54.3%
  % change from baseline in ADIQ, placebo-corrected change: −25.3%
  % change from baseline in Pruritus VAS (from SCORAD), mean: −40.71%
  % change from baseline in Pruritus VAS (from SCORAD), placebo-corrected change: −13.7%
  % change from baseline in Sleep Loss VAS (from SCORAD), mean: −53.6%
  % change from baseline in Sleep Loss VAS (from SCORAD), placebo-corrected change: −31.0%
  DLQI, % change from baseline, adjusted mean: −43.12%
  DLQI, % change from baseline, Δ vs placebo: −9.55%
  SCORAD score % change from baseline, adjusted mean: −53.5%
  SCORAD score % change from baseline, Δ vs placebo: −18.0%
  Total % BSA affected, % change from baseline, adjusted mean: −57.7%
  Total % BSA affected, % change from baseline, Δ vs placebo: −10.3%
[2]
  % Patients achieving EASI-50: (82.4) %
  % Patients achieving EASI-75: (54.9) %
  % Patients achieving SCORAD-50: (51.0) %
125 mg Q4W + TCS, Week 12
  reduction in BSA affected: 57.7%
125 mg Q4W + TCS
  Change from baseline Pruritus VAS, mean % change: −35.23%
  Change from baseline Pruritus VAS, placebo-corrected differences: −13.76%
  Change from baseline in EASI, mean % change: −71.1%
  Change from baseline in EASI, placebo-corrected differences: −17.08%
  Patients maintaining EASI-50 response at Weeks 12 and 20, %: (90.5) %
  Patients maintaining EASI-50 response at Weeks 12 and 20, placebo-corrected differences: 17.75%
  Patients maintaining EASI-75 response at Weeks 12 and 20, %: (75.0) %
  Patients maintaining EASI-75 response at Weeks 12 and 20, placebo-corrected differences: 8.33%
  Patients maintaining IGA 0/1 response at Weeks 12 and 20, %: (70.6) %
  Patients maintaining IGA 0/1 response at Weeks 12 and 20, placebo-corrected differences: 10.59%
  Patients maintaining SCORAD-50 response at Weeks 12 and 20, %: (50.0) %
  Patients maintaining SCORAD-50 response at Weeks 12 and 20, placebo-corrected differences: −28.60%
125 mg SD + TCS
  Change from baseline Pruritus VAS, mean % change: −27.59%
  Change from baseline Pruritus VAS, placebo-corrected differences: −6.13%
  Change from baseline in EASI, mean % change: −62.1%
  Change from baseline in EASI, placebo-corrected differences: −8.08%
  Patients maintaining EASI-50 response at Weeks 12 and 20, %: (80.6) %
  Patients maintaining EASI-50 response at Weeks 12 and 20, placebo-corrected differences: 7.83%
  Patients maintaining EASI-75 response at Weeks 12 and 20, %: (45.0) %
  Patients maintaining EASI-75 response at Weeks 12 and 20, placebo-corrected differences: −21.70%
  Patients maintaining IGA 0/1 response at Weeks 12 and 20, %: (54.5) %
  Patients maintaining IGA 0/1 response at Weeks 12 and 20, placebo-corrected differences: −5.45%
  Patients maintaining SCORAD-50 response at Weeks 12 and 20, %: (61.1) %
  Patients maintaining SCORAD-50 response at Weeks 12 and 20, placebo-corrected differences: −17.50%
[3]
  ADIQ reduction from screening: 64.7%
  Pruritus VAS reduction from screening: 55.2%
  Sleep Loss VAS reduction from screening: 61.5%
125 mg once every four weeks for 12 weeks + TCS, P=0.025
  placebo corrected change in EASI (difference between lebrikizumab treatment and placebo): 17.4%
125 mg once every four weeks for 12 weeks + TCS, modified intention-to-treat population
  % change (decrease) from baseline in EASI: 70.5%
[4]
  % Patients achieving EASI-50: (69.2) %
  % Patients achieving EASI-50, placebo-corrected changes: 7.0%
  % Patients achieving EASI-75: (38.5) %
  % Patients achieving EASI-75, placebo-corrected changes: 4.5%
  % Patients achieving IGA 0/1: (21.2) %
  % Patients achieving IGA 0/1, placebo-corrected change: 2.3%
  % Patients achieving SCORAD-50: (34.6) %
  % Patients achieving SCORAD-50, placebo-corrected change: 8.2%
  % Patients achieving SCORAD-75: (13.5) %
  % change from baseline in AD Specific health-related QoL - ADIQ, mean: −33.9%

Reference: US12692302B2, “Uses of IL-13 antagonists for treating atopic dermatitis” (Genentech, Inc., priority 2016, dated 2026)
